Assay results as given in patent US20210186972A1, “FORMULATIONS AND METHODS FOR THE PREVENTION AND TREATMENT OF TUMOR METASTASIS AND TUMORIGENESIS” (THE UNITED STATES OF AMERICA, AS REPRESENTED BY THE …, priority 2018, published 2021).

Columns and labels:
RPA194 and UBF = test: Western blot of RPA194 and UBF; assay type: cell-based; conditions: 1 μM, 24 hours, PANC1, PC3M, and HeLa
Method: Western blots were performed according to the manufacturer's protocols (Li-COR). Transfer membrane was from Millipore (cat. no. IPFL00010). The primary antibodies used were phospho-γ H2AX (Upstate 07-164, rabbit, 1:1000); p53 (Santa Cruz Biotechnology sc-6243 rabbit 1:500); UBF (F-9) (Santa Cruz Biotechnology, mouse, 1:500); RPA194 (Santa Cruz Biotechnology, sc-48385, mouse, 1:500); p53BP1 (Novus, NB100-304, rabbit 1:10,000); EF1a (Millipore 05-235, mouse, 1:1000), HA-Tag (C29F4, Cell Signaling, rabbit 1:1000) and actin (Sigma A5060, rabbit, 1:3000, A4700, mouse, 1:1000) as a loading control. LI-COR IRDye secondary antibodies (1:10,000), goat anti-mouse-680RD (926-68070), goat anti-mouse-800CW (926-32210), goat-anti-rabbit-680RD (926-68071), goat-anti-rabbit-800CW (926-32211) were used for visualization. Protein bands were detected using LI-COR Odyssey Image Studio (LI-COR Biosciences).
Psoralen crosslinks active accessible DNA under UV light without displacing nucleosomes or transcription factors, or changing chromatin states. Psoralen-crosslinked DNA moves slower on agarose gel and can be distinguished from the non-crosslinked DNA by Southern blots. […] To examine the interactions between Pol I transcription factors and rDNA, quantitative ChIP experiments were carried out using primer sets across promoter and coding regions of rDNA (FIG. 29-30E).

human cancer cell lines = test: PNC prevalence in a range of cancer cell lines; assay type: cell-based; conditions: 1 μM, 24 hours, different human cancer cell lines
Method: FIG. 2 is a bar graph showing that 1 μM metarrestin was effective at reducing PNCs in a range of cancer cell lines (p<0.05 for PNC reduction in all cell lines; the list of cells is in Table 1 below, see also Example 2 below). The DMSO control is shown in light grey bars and metarrestin in dark grey bars. PNC prevalence (%) is on the y-axis and the cell line names are along the x-axis.
In summary, several cell types (see list below in Table 1) were treated with 1 μM (IC100 for PC3M cells) of metarrestin for 24 hours. Specifically, PC-3M cells were maintained in RPMI 1640 medium. Other cell lines including HeLa, Panel, PACADD159, PACADD183, PA-TU-8988T, KP-3, PK-8, NOR-P1, L3.6sl, Colo357, Suit-2, HP AC were maintained in DMEM with 10% FBS (GEMINI™ Bio Products) and 100 units/mL of penicillin and streptomycin. Cells were generally plated approximately 24 h before treatment with metarrestin for 5 h or 24 h at 1 μM.

PC3M cells [1] = test: 24-well Transwell MATRIGEL invasion assay, PC3M; assay type: cell-based, human; conditions: 0.6 μM, within 24 hours
Method: FIG. 3 is a bar graph showing that metarrestin inhibits MATRIGEL gelatinous protein mixture (BD Biosciences, Franklin Lakes, N.J.) invasion at below micromolar concentrations (0.6 μM) within 24 hours of treatment (* p<0.05 and ** p<0.01 in comparison to DMSO [control]). The invasion (%) is on the y-axis and the metarrestin [microM] is on the x-axis. The cell line PC3M is shown in white bars and the cell line PANC1 (human pancreas) is shown in black bars.
24-well Transwell Permeable MATRIGEL gelatinous protein mixture Invasion assay: The effect of metarrestin on invasion activity of PANC1 and PC3M cells was measured using 24-well Transwell Permeable MATRIGEL gelatinous protein mixture Invasion Chambers with 8 μm pores (Corning, Cat #354480). Membranes were rehydrated with 500 μL of serum-free DMEM (Thermo Fisher, Cat #11965084) both inside the chamber and inside the well and incubated for two hours at 37° C., 5% CO2. Cells were detached, washed, resuspended in serum-free DMEM, counted, and diluted to a final concentration of 1×10^5 cells/mL in six separate 15 mL conical tubes. […] 750 μL of DMEM plus 10% FBS acting as a chemoattractant were placed in the basal wells. Plates were incubated at 37° C., 5% CO2 for 24 hours. […]

[2] = design: species or system NSG PANC1 mice; conditions: NSG (Nod/IL2gamma null), mouse, in vivo, po, 10 mg/kg, 1 h
PANC1, PC3M, and HeLa = test: DNA damage response, cell cycle and apoptosis; assay type: cell-based
Method: Genotoxic agents that intercalate into or alkylate DNA, such as actinomycin D, induce similar nucleolar segregation to that observed with metarrestin treatment. To determine whether metarrestin induces nucleolar changes through genotoxic effects or general cytotoxicity, the impact of metarrestin on DNA damage repair, cell cycle, and general Pol II transcription status in three cell lines, PANC1, PC3M, and HeLa, was evaluated. […]

PC3M cells [3] = test: Cell growth (INCUCYTE confluence), PC3M; assay type: cell-based, human
From the text: The confluence (%) is on the y-axis and the time (in hours) is on the x-axis. The top most line is GM02153-DMSO, the second line from the top is PC3M-DMSO, the third line from the top is GM02153-metarrestin, and the bottom line is PC3M-metarrestin.

## N=c1c2c(-c3ccccc3)c(-c3ccccc3)n(Cc3ccccc3)c2ncn1[C@H]1CC[C@H](O)CC1 [metarrestin]
RPA194 and UBF
  Amounts of Pol I large subunit RPA194 and UBF: did not change significantly
Human cancer cell lines
  PNC prevalence: reduced PNC prevalence
PC3M cells [1]
  Invasion of PC3M cells: effectively blocked the invasion
[2]
  Concentration in primary tumors above the IC90 of 0.75 μM: more than 10 fold
PANC1, PC3M, and HeLa
  Apoptotic index, cells undergoing apoptosis: less than 1%
PANC1, PC3M, and HeLa; 1 μM, 24 hours
  DNA damage response signature factors: neither phosphorylated yH2AX or p53BP1, nor phosphorylated p53
PANC1, PC3M, and HeLa; two different concentrations within 24 hours
  Cell cycle pattern (DNA content, flow cytometry): did not show a significant alteration of cell cycle pattern
PC3M cells [3]; 0.6 μM, after 24 hours of treatment
  PC3M cell growth: did not affect PC3M or PANC1 cell growth
PC3M cells [3]; 1 μM, extended time, INCUCYTE
  Cell growth in PC3M cancer cells: preferentially inhibited cell growth
